Values after ≈ are worked out from the molar mass of the structure shown.
Tests used:
[1] = test system: B. subtilis 168; assay: fitness (endpoint OD595 vs no drug) (fraction); higher = more growth
How it was run: (§1)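 Each well of a 384-well plate received 30 µl of culture at OD595 0.01, or 55 µl for S. pneumoniae. TSB, LB Lennox or CY served as media at 37 °C. OD595 was taken every 30 min for 14 h and corrected by subtracting the first reading. Fitness is the optical density at stationary-phase entry divided by the robust mean of no-drug controls, capped at 1.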

[2] = test system: S. pneumoniae D39V; assay: as above
How it was run: as §1

[3] = test system: S. aureus DSM 20231; assay: as above
How it was run: as §1

[4] = test system: B. subtilis 168
[5] = test system: S. pneumoniae D39V
[6] = test system: S. aureus DSM 20231
[7] = test system: S. aureus Newman
[8] = test system: S. aureus Newman; assay: fitness (endpoint OD595 vs no drug) (fraction); higher = more growth
How it was run: as §1

CC(=O)Oc1ccccc1C(=O)O [Acetylsalicylic acid]
fitness
Settings	[1]	[2]	[3]
250 µg/mL	0.948	0.967	0.991
500 µg/mL	0.911	0.965	0.888
1000 µg/mL	0.745	0.924	0.522

Settings	MIC [µg/mL]
[4]	2000 (≈ 11100 µM)
[5]	2000 (≈ 11100 µM)
[6]	1000 (≈ 5550 µM)
[7]	2000 (≈ 11100 µM)

N#CC(C#N)=NNc1cccc(Cl)c1 [CCCP]
[2]
Settings	fitness
0.575 µg/mL	0.981
1.15 µg/mL	0.968
2.3 µg/mL	0.942

Settings	MIC [µg/mL]
[4]	2.3 (≈ 11.2 µM)
[5]	4.5 (≈ 22 µM)

CO/N=C(\C(=O)N[C@@H]1C(=O)N2C(C(=O)O)=C(COC(C)=O)CS[C@H]12)c1csc(N)n1 [Cefotaxime]
Settings	fitness
[1], 0.0625 µg/mL	0.477
[1], 0.125 µg/mL	0.338
[1], 0.25 µg/mL	0.205
[1], 0.5 µg/mL	0.113
[1], 1 µg/mL	0.0654
[1], 2 µg/mL	0.0508
[2], 0.0018 µg/mL	≥ 1
[2], 0.0035 µg/mL	0.998
[2], 0.007 µg/mL	0.83
[3], 0.039 µg/mL	0.935
[3], 0.078 µg/mL	0.869
[3], 0.155 µg/mL	0.951
[3], 0.156 µg/mL	0.844
[3], 0.31 µg/mL	0.825
[3], 0.312 µg/mL	0.676
[3], 0.62 µg/mL	0.669
[8], 0.039 µg/mL	0.829
[8], 0.078 µg/mL	0.786
[8], 0.156 µg/mL	0.729
[8], 0.312 µg/mL	0.462
[8], 0.625 µg/mL	0.0743
[8], 1.25 µg/mL	0.022
[8], 2.5 µg/mL	0.021

Settings	MIC [µg/mL]
[5]	0.008 (≈ 0.0176 µM)
[6]	0.173 (≈ 0.38 µM)
[7]	2.5 (≈ 5.49 µM)

CO/N=C(\C(=O)N[C@@H]1C(=O)N2C(C(=O)O)=C(COC(N)=O)CS[C@H]12)c1ccco1 [Cefuroxime]
[1]
Settings	fitness
0.195 µg/mL	0.319
0.39 µg/mL	0.26
0.78 µg/mL	0.212
1.562 µg/mL	0.332
3.125 µg/mL	0.264
6.25 µg/mL	0.227

Settings	MIC [µg/mL]
[4]	2 (≈ 4.71 µM)
[5]	0.25 (≈ 0.589 µM)
[6]	0.25 (≈ 0.589 µM)
[7]	0.25 (≈ 0.589 µM)

CN(C)[C@@H]1C(O)=C(C(N)=O)C(=O)[C@@]2(O)C(O)=C3C(=O)c4c(O)ccc(Cl)c4[C@@](C)(O)[C@H]3C[C@@H]12 [Chlortetracycline]
fitness
Settings	0.012 µg/mL	0.0238 µg/mL	0.024 µg/mL	0.0475 µg/mL	0.048 µg/mL	0.095 µg/mL	0.19 µg/mL
[1]	–	–	–	0.895	–	0.8	0.524
[2]	0.857	–	0.703	–	0.526	–	–
[3]	0.793	–	0.441	–	0.073	–	–
[8]	0.683	0.237	0.402	0.0993	0.0667	0.0061	–

Settings	MIC [µg/mL]
[4]	0.4 (≈ 0.835 µM)
[5]	1.5 (≈ 3.13 µM)
[6]	0.15 (≈ 0.313 µM)
[7]	0.095 (≈ 0.198 µM)

O=C(O)c1cn(C2CC2)c2cc(N3CCNCC3)c(F)cc2c1=O [Ciprofloxacin]
fitness
Settings	0.0098 µg/mL	0.0195 µg/mL	0.0375 µg/mL	0.039 µg/mL	0.075 µg/mL	0.078 µg/mL	0.15 µg/mL	0.156 µg/mL	0.312 µg/mL
[1]	0.871	0.777	–	0.135	–	–	–	–	–
[3]	–	–	1	–	0.978	0.899	0.77	0.754	0.456
[8]	–	–	0.801	–	0.597	0.708	0.0387	0.267	0.0879

Settings	MIC [µg/mL]
[5]	1 (≈ 3.02 µM)
[6]	0.312 (≈ 0.942 µM)
[7]	0.156 (≈ 0.471 µM)

COc1cccc2c1C(=O)c1c(O)c3c(c(O)c1C2=O)C[C@@](O)(C(=O)CO)C[C@@H]3O[C@H]1C[C@H](N)[C@H](O)[C@H](C)O1 [Doxorubicin]
fitness
Settings	0.25 µg/mL	0.5 µg/mL	0.625 µg/mL	1 µg/mL	1.25 µg/mL	2.5 µg/mL
[1]	–	–	0.946	–	0.918	0.816
[2]	0.86	0.903	–	0.781	–	–
[3]	–	–	0.967	–	0.907	0.827
[8]	–	–	0.896	–	0.791	0.68

Settings	MIC [µg/mL]
[4]	5 (≈ 9.2 µM)
[5]	1.2 (≈ 2.21 µM)
[6]	2.78 (≈ 5.11 µM)
[7]	2.78 (≈ 5.11 µM)

Reference: the supplement of paper PMC10627819
